Data taken from patent publication US9359389B2, “Caged ceramide-1-phosphate derivatives” (RESEARCH FOUNDATION OF THE CITY UNIVERSITY OF NEW YORK, priority 2009, dated 2016).
“Also recorded” adds a separate entry of the source.

Assays:
[1] = Qualitative measurement of uncaging efficiency (photolysis at 365 nm, TLC); format: physicochemical; conditions: 100 μM in 50% aqueous EtOH, 50% 10 mM Tris, pH 7.4, 365 nm UV lamp at 1 cm
Experimental: Qualitative Measurement of Uncaging Efficiency. A 100 μM solution of S1P 1 in 50% aqueous EtOH and 50% 10 mM Tris, pH 7.4, was placed in a quartz cuvette and placed at a distance of 1 cm from a conventional UV lamp (Entela UVGL-25 UV lamp). The compound was irradiated using long wavelength (365 nm) and, after a certain time, as indicated in the TLC, an aliquot was applied to a TLC plate, which was developed with CHCl3/MeOH 3:1. Photodecomposition of 100% DECM-caged 1P 1 took place around 60 min.
Qualitative Measurement of Uncaging Efficiency. A 100 μM solution of BHNB-caged S1P (2) in 50% aqueous EtOH and 50% 10 mM Tris, pH 7.4, was placed in a quartz cuvette and irradiated at 365 nm at a distance of 1 cm with a conventional UV lamp (Entela UVGL-25 UV lamp). Aliquots were withdrawn at various times and analyzed by TLC (developed using CHCl3/MeOH 2:1). The mechanism of photolysis of 2-nitrobenzyl caged compounds has been thoroughly studied and is known to generate 2-nitrosobenzaldehyde as the photo by-product of the reaction.^S1 Similarly, our BHNB uncaging experiment is expected to generate a 2-nitrosobenzophenone derivative as the byproduct (Formula 20). […] 100% photodecomposition of […]-S1P (2) took place after 65 min.

RAW 264.7 cells = test: Cell growth and proliferation assay (MTS) in RAW 264.7 macrophages; conditions: for cell growth on delivery into RAW 264.7 macrophages: FIG. 3A, 400-500 nm light in a transilluminator; for concentration at which cell division was stimulated (MTS assay) on exposure of the cells to light: RAW264.7, compound in EtOH, 400-500 nm light; for growth stimulation in the dark: cells incubated in the dark with the compounds; for concentration for stimulation of macrophage proliferation compared with exogenous C1P: macrophages (RAW 264.7 and BMDM), after photorelease
Experimental: Cell Growth and Proliferation Assays. RAW 264.7 cells were obtained from the American Type Culture Collection (Rockville, Md.). […] Cell growth was estimated by measuring the rate of reduction of the tetrazolium dye MTS, (3-(4,5-dimethylthiazol-2-yl)-5-(3-carboxymethoxy-phenol)-2-(4-sulfophenyl)-2H-tetrazolium).
The cells were exposed to 400-500 nm light in a transilluminator equipped with a 9W lamp for 60 min at a distance of 1.5 cm at 37° C.

primary BMDM cells = test: Cell growth and proliferation assay (MTS) in primary bone marrow-derived macrophages; format: cell-based, CD-1 mice; conditions: for concentration at which cell division was stimulated (MTS assay) on exposure of the cells to light: primary BMDM, compound in EtOH
Experimental: The cells were incubated with 1.5% MCSF for 24 hr.
Compounds 1a and 2a stimulated cell division, as determined by the MTS assay, at 2.5 and 1.0 μM, respectively, on exposure of the cells to light.
Cell Growth and Proliferation Assays. RAW 264.7 cells were obtained from the American Type Culture Collection (Rockville, Md.). BMDMs were isolated from femurs of 6- to 8-week old female CD-1 mice from Charles River Laboratory as described previously.^S2 The cells were cultured as described previously. Cell growth was estimated by measuring the rate of reduction of the tetrazolium dye MTS, (3-(4,5-dimethylthiazol-2-yl)-5-(3-carboxymethoxy-phenol)-2-(4-sulfophenyl)-2H-tetrazolium). […] Photolysis of 2.5 μM of compound 1a (delivered to RAW 264.7 cells in EtOH) was equipotent as exogenous 30 μM C1P.

Row | time to 100% photodecomposition [1] | Compound | cell growth on delivery into RAW 264.7 macrophages (RAW 264.7 cells) | concentration at which cell division was stimulated (MTS assay) on exposure of the cells to light (RAW 264.7 cells) | growth stimulation in the dark (RAW 264.7 cells) | concentration for stimulation of macrophage proliferation compared with exogenous C1P (RAW 264.7 cells) | concentration at which cell division was stimulated (MTS assay) on exposure of the cells to light (primary BMDM cells) | also measured
1 | around 60 min | CCCCCCCCCCCCC/C=C/[C@@H](O)[C@@H](N)COP(=O)(O)OCc1cc(=O)oc2cc(N(CC)CC)ccc12 [Compound 1, (2S,3R,4E)-2-Amino-3-hydroxyoctadec-4-enyl (7-(Diethylamino)coumarin-4-yl) -methyl Phosphate] | – | – | – | – | – | –
2 | – | CCCCCCCCCCCCC/C=C/[C@@H](O)[C@H](COP(=O)(O)OCc1cc(=O)oc2cc(N(CC)CC)ccc12)NC(=O)CCCCCCCCCCCCCCC [Compound 1a, (2S,3R,4E)-2-Palmitamido-3-hydroxyoctadec-4-enyl (7-Diethylaminocoumarin-4-yl)methyl Phosphate] | stimulates cell growth | 2.5 µM | No growth stimulation | significantly lower concentrations than exogenous C1P | 2.5 µM | potency of growth stimulation compared with exogenous C1P at 30 μM (RAW 264.7 cells; RAW 264.7, 2.5 μM in EtOH, photolysis): as potent as exogenous C1P; also recorded: equipotent
3 | 65 min | CCCCCCCCCCCCC/C=C/[C@@H](O)[C@@H](N)COP(=O)(O)OC(c1ccccc1)c1cc(O)c(Br)cc1[N+](=O)[O-] (stereo partly drawn) [Compound 2, (2S,3R,4E)-2-Amino-3-hydroxyoctadec-4-enyl-(4′-bromo-5′-hydroxy-2′-nitrophenyl)(phenyl)methyl Hydrogen Phosphate] | – | – | – | – | – | –
4 | – | CCCCCCCCCCCCC/C=C/[C@@H](O)[C@H](COP(=O)(O)OC(c1ccccc1)c1cc(O)c(Br)cc1[N+](=O)[O-])NC(=O)CCCCCCCCCCCCCCC (stereo partly drawn) [Compound 2a, (4′-Bromo-5′-hydroxy-2′-nitrophenyl)(phenyl)methyl-(2S,3R,4E)-3-hydroxy-2-palmitamidooctadee-4-enyl Hydrogen Phosphate] | stimulates cell growth | 1.0 µM | No growth stimulation | significantly lower concentrations than exogenous C1P | 1.0 µM | –
5 | – | CCCCCCCCCCCCC/C=C/[C@@H](O)[C@H](COP(=O)(O)O)NC(=O)CCCCCCCCCCCCCCC [N-palmitoyl-C1P, reference compound] | – | – | – | – | – | optimum concentration for stimulation of cell growth (RAW 264.7 cells; RAW 264.7, aqueous dispersion, exogenous addition): 30 µM; effect on cell growth at concentrations higher than 30 μM (RAW 264.7 cells; RAW 264.7, exogenous aqueous dispersion): growth inhibitory; optimum concentration for stimulation of cell growth (primary BMDM cells; BMDM, aqueous dispersion, exogenous addition): 50 µM
